Results from patent US10906930B2, “Compositions and methods for activating “stimulator of interferon gene”-dependent signalling” (ADURO BIOTECH, INC., priority 2015, dated 2021).
Like-named read-outs stand apart in the source and are kept apart here.

Experiments:
B16.SIY melanoma = B16.SIY melanoma model, single intra-tumoral injection, tumor volume; assay type: in vivo, mouse; conditions: 100 μg dose, single IT injection
Experimental: Tumors were measured twice weekly.
(§1) Tumors were measured twice weekly. Mice were euthanized on day 7 post IT injection and spleens were harvested and splenocytes prepared. […] Stained cells were analyzed using FACS Versa cytometer with FACSDiva software (BD Biosciences). Data analysis was conducted with FlowJo software (Tree Star). […] IFN-γ ELISPOT plates were developed and quantified using a CTL plate reader and ImmunoSpot software.

[1] = target: T1, wild type hSTING (STING AA140-379) (Homo sapiens, UniProt Q86WV6, H232R); experiment: DSF Tm shift with purified hSTING WT protein; assay type: binding; conditions: 1 mg/mL purified STING AA140-379, ligand 1 mM
T1 construct: DNA encoding amino acids 140-379 (amino acid numbering corresponding to Swiss Prot Q86WV6); 6xHIS (N, cleaved yes); SUMO (N, cleaved yes); made in house; host or cells: E. coli Rosetta2 (DE3)
T1 sequence (Q86WV6 140-379 H232R): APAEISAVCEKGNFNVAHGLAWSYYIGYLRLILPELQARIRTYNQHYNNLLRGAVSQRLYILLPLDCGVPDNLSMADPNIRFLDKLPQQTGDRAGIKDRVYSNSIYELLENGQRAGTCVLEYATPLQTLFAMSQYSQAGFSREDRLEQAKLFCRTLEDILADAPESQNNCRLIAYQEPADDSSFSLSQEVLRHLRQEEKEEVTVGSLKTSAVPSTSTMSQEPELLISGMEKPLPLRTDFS

[2] = tested on: human STING signaling in THP1 cells (HAQ allele); experiment: THP1-Dual IRF-3 inducible luciferase reporter assay; assay type: cell-based
[3] = tested on: hPBMCs homozygous for the REF (R232H) STING allele; experiment: IFN-β transcript induction in hPBMCs, STING REF/REF donor; assay type: cell-based, human; conditions: hPBMC STING REF/REF, 10 μM, 2 hours
[4] = tested on: serum TNF-α, IL-6, MCP-1 and IFN-γ; experiment: Serum pro-inflammatory cytokines after intra-tumoral injection, B16.SIY model (CBA)
[5] = tested on: SIY tumor antigen specific CD8+ T cells; experiment: SIY+ CD8+ T cells in splenocytes, B16.SIY model, pentamer FACS; assay type: in vivo, mouse
Experimental: as §1

[6] = target: T2, REF allele hSTING (STING AA140-379) (Homo sapiens, UniProt Q86WV6); experiment: DSF Tm shift with purified hSTING REF allele protein; assay type: binding
T2 construct: DNA encoding amino acids 140-379 (amino acid numbering corresponding to Swiss Prot Q86WV6); 6xHIS (N, cleaved yes); SUMO (N, cleaved yes); made in house; host or cells: E. coli Rosetta2 (DE3)
T2 sequence (Q86WV6 140-379): as the sequence (Q86WV6 140-379 H232R) above, with R93H counted along it

[7] = tested on: hPBMCs homozygous for the HAQ STING allele; experiment: IFN-β transcript induction in hPBMCs, STING HAQ/HAQ donor; assay type: cell-based, human; conditions: hPBMC STING HAQ/HAQ, 10 μM, 2 hours
[8] = tested on: hPBMCs homozygous for the wild type (WT) STING allele; experiment: IFN-β transcript induction in hPBMCs, STING WT/WT donor; assay type: cell-based, human; conditions: hPBMC STING WT/WT, 10 μM, 2 hours
[9] = target: T3, HAQ allele hSTING (STING AA140-379) (Homo sapiens, UniProt Q86WV6, G230A/H232R/R293Q); experiment: DSF Tm shift with purified hSTING HAQ allele protein; assay type: binding; conditions: 1 mg/mL purified STING AA140-379, ligand 1 mM
T3 construct: DNA encoding amino acids 140-379 (amino acid numbering corresponding to Swiss Prot Q86WV6); 6xHIS (N, cleaved yes); SUMO (N, cleaved yes); made in house; host or cells: E. coli Rosetta2 (DE3)
T3 sequence (Q86WV6 140-379 G230A/H232R/R293Q): as the sequence (Q86WV6 140-379 H232R) above, with G91A, R154Q counted along it

SMILES: Nc1ncnc2c1ncn2[C@@H]1O[C@@H]2CO[P@@](=O)(S)O[C@@H]3[C@@H](F)[C@@H](CO[P@@](=O)(S)O[C@H]2[C@H]1F)O[C@H]3n1cnc2c(N)ncnc21 [Compound 10, dithio-[RP, RP]-cyclic-[3′βF-A(2′,5′)p-2′F-A(3′,5′)p]]
- Tumor inhibition (B16.SIY melanoma): complete tumor inhibition
- hSTING Tm Shift WT [1]: 11.8 °C
- EC50 ([2]; Homo sapiens, THP-1, THP1 cells (HAQ allele), PB buffer containing 10 μg/mL digitonin, read-out: EC50 +digitonin): 271 nM
- EC50 ([2]; THP1 cells (HAQ allele), without digitonin, read-out: EC50 No digitonin): 4600 nM
- Activity in THP1 assay without digitonin relative to di-OH reference compound, in words ([2]; without digitonin): improved activity relative to the di-OH reference compound 2′3′-RR-(A)(A)
- EC50 improvement over 2′3′-RR-(A)(A) ([2]; without digitonin): 8 fold
- Relative Expression of IFN-β transcript compared with di-OH reference, in words [3]: higher levels of IFN-β transcripts than the di-OH reference compound 2′3′-RR-(A)(A)
- Serum concentrations of pro-inflammatory cytokines (TNF-α, IL-6, MCP-1, IFN-γ) versus 2′3′-RR-(A)(A) ([4]; 1 μg dose, six hours post IT injection): comparable
- Safety profile as compared to reference compound 2′3′-RR-(A)(A) ([4]; from systemic serum cytokines): comparable safety profile
- SIY+ CD8+ T cell response versus 2′3′-RR-(A)(A) ([5]; 1 μg dose, FACS): comparable responses at the 1 μg dose to 2′3′-RR-(A)(A)
- Frequency of SIY+ CD8+ T cells in splenocytes versus HBSS control ([5]; FACS pentamer staining, day 7 post IT injection): significantly higher frequencies of SIY^+ CD8^+ T cells than HBSS control
- hSTING Tm Shift REF ([6]; 1 mg/mL purified STING AA140-379, ligand 1 mM): 6.4 °C
- Tm shift compared with reference compound, in words ([6]; hSTING REF allele): Tm shift less than the 2′3′-RR-(A)(A)
- Relative Expression of IFN-β transcript compared with di-OH reference, in words [7]: higher levels of IFN-β transcripts than the di-OH reference compound 2′3′-RR-(A)(A)
- Relative Expression of IFN-β transcript compared with di-OH reference, in words [8]: higher levels of IFN-β transcripts than the di-OH reference compound 2′3′-RR-(A)(A)
- hSTING Tm Shift HAQ [9]: 20.6 °C
